Source: patent US8129381B2, “Caspase inhibitors and uses thereof” (Vertex Pharmaceuticals Incorporated, priority 2002, dated 2012)

Tests used:
[1] = test system: rat cortical neurons; assay: Hypoxia-induced apoptosis of rat cortical neurons; assay type: cell-based, Wistar rat; conditions: Cortical neurone, oxygen-depleted serum-free medium, Cell Death Detection ELISA (DNA fragmentation)
Description: Cortical neurons are dissociated from Wistar rat embryos (E17) by a modification of the procedure of Rogers et al., Brain Res. Bulletin, 44:131 (1998). Briefly, cerebral cortices are isolated aseptically from 15-20 Wistar rat embryos. A cell suspension is prepared by mincing the cerebral cortices and digesting them with papain. Cells are washed with ovomucoid enzyme inhibitor and DNaseI and plated onto Poly-D lysine coated plates in high glucose DMEM containing 10% heat-inactivated fetal calf serum, L-glutamine, penicillin and streptomycin. The yield of neurons is […] per embryo and they are 80-90% viable as assessed by Trypan blue exclusion.
The neurons are cultured in complete medium at 37° C. in a normal atmosphere for 48 hours prior to the hypoxia experiments. For hypoxia, the normal cell medium is replaced by oxygen-depleted serum-free medium. Cells are incubated in an atmosphere of 95% N2/5% CO2 for various lengths of time. Compounds are dissolved in DMSO at 100 mM then diluted in medium and added to the culture from time=0. The level of apoptosis is measured using a Cell Death Detection ELISA kit (Roche) which detects DNA fragmentation. Plates are read at 405 nm. Controls included cells cultured in aerobic conditions in serum-containing medium (+serum) and cells cultured in aerobic conditions in serum-deprived medium (−serum).
Compounds with an IC50>0.5 μM are listed as “A”. Compounds with an IC50 between 0.1 μM and 0.5 uM are listed as “B”. Compounds with an IC50<0.1 μM are listed as “C”.

[2] = test system: IL-1β secretion from human whole blood; assay: Inhibition of IL-1β secretion from whole blood; assay type: cell-based; conditions: human whole blood diluted 1:2 in PBS, LPS 5 ng/ml, 18 hours, ELISA
Description: Human blood is freshly drawn from healthy donors and diluted 1:2 in PBS. To 500 μl of diluted blood […] of prediluted test compound in RPMI medium and […] LPS (5 ng/ml final concentration on the plate) are added (LPS, Serotype 0111:B4, Sigma L3012). After stimulation for 18 hours supernatants are collected and assayed for IL-1β levels using the appropriate ELISA kit (R&D systems).
Compounds with an IC50>10 μM are listed as “A”. Compounds with an IC50 between 1 μM and 10 uM are listed as “B”. Compounds with an IC50<1 μM are listed as “C”.

[3] = target: T1, recombinant, purified human Caspase-1 (Homo sapiens, UniProt P29466); assay: Enzyme assay, caspase inhibition (fluorogenic substrate cleavage); assay type: biochemical; conditions: second order rate constant of enzyme inactivation; substrate Acetyl-Tyr-Val-Ala-Asp-amino-4-methylcoumarin
T1 sequence (P29466 120-297 limits assumed): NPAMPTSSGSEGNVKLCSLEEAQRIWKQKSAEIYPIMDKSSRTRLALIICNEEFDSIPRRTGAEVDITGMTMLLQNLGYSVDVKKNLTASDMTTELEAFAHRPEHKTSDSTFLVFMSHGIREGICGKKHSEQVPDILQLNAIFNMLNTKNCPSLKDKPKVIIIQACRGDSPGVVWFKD
T1 sequence (P29466 317-404 limits assumed): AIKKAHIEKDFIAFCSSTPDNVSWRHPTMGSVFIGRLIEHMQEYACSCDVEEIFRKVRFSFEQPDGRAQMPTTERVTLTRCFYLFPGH
Source text: (§1) The assays for caspase inhibition are based on the cleavage of a fluorogenic substrate by recombinant, purified human Caspases −1, −3, −7 or −8. The assays are run in essentially the same way as those reported by Garcia-Calvo et al., J. Biol. Chem. 273, 32608-32613 (1998), using a substrate specific for each enzyme. The substrate for Caspase-1 is Acetyl-Tyr-Val-Ala-Asp-amino-4-methylcoumarin and the substrate for Caspases −3, −7 and −8 is Acetyl-Asp-Glu-Val-Asp-amino-4-methylcoumarin both as disclosed in Garcia-Calvo et al., J. Biol. Chem. 273, 32608-32613 (1998).
(§2) The observed rate of enzyme inactivation at a particular inhibitor concentration, kobs, is computed by direct fits of the data to the equation derived by Thornberry et al., Biochemistry, 33, […] (1994) using a nonlinear least-squares analysis computer program (PRISM 2.0; GraphPad software). To obtain the second order rate constant, kinact, kobs values are plotted against their respective inhibitor concentrations and kinact values are subsequently calculated by computerized linear regression.
(§3) Compounds with kinact(M^−1s^−1)>500000 are listed as “A”. Compounds with kinact(M^−1s^−1) between 100000 and 500000 are listed as “B”. Compounds with kinact(M^−1s^−1)<100000 are listed as “C”.

[4] = target: T2, recombinant, purified human Caspase-3 (Homo sapiens, UniProt P42574); assay: as above; assay type: biochemical; conditions: second order rate constant of enzyme inactivation; substrate Acetyl-Asp-Glu-Val-Asp-amino-4-methylcoumarin
T2 sequence (P42574 29-175 limits assumed): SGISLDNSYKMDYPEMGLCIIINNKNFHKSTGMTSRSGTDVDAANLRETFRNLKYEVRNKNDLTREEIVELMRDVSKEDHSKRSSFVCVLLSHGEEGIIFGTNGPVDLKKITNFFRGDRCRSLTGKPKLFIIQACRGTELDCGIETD
T2 sequence (P42574 176-277 limits assumed): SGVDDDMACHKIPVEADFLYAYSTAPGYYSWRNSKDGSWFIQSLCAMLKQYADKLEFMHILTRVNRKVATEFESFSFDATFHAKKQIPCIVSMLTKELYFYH
Source text: as §1, §2, §3

[5] = target: recombinant, purified human Caspase-8 (Homo sapiens, UniProt Q14790); assay: as above; assay type: biochemical; conditions: second order rate constant of enzyme inactivation; substrate Acetyl-Asp-Glu-Val-Asp-amino-4-methylcoumarin
recombinant, purified human Caspase-8, sequence (Q14790 217-374 limits assumed): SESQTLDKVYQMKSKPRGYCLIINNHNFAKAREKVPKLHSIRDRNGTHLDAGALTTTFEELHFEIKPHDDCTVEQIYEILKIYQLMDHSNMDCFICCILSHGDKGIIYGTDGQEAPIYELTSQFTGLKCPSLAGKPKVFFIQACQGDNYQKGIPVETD
recombinant, purified human Caspase-8, sequence (Q14790 385-479 limits assumed): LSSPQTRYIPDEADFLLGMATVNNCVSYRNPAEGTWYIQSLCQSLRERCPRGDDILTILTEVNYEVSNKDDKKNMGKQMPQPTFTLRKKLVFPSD
Source text: as §1, §2, §3

## CCCSc1ccc2ncn([C@@H](CC)C(=O)NC(CC(=O)O)C(=O)CF)c(=O)c2c1 (stereo partly drawn) [Compound 22, 5-Fluoro-4-oxo-3-[(2S)-2-(4-oxo-6-propylsulfanyl-4H-quinazolin-3-yl)-butyrylamino]-pentanoic acid]
[1]
  IC50: > 500 nM
[2]
  IC50: < 1000 nM
[3]
  kinact Caspase-1: A (Compounds with kinact(M^−1s^−1)>500000 are listed as “A”)
[4]
  kinact Caspase-3: A (Compounds with kinact(M^−1s^−1)>500000 are listed as “A”)
[5]
  kinact Caspase-8: A (Compounds with kinact(M^−1s^−1)>500000 are listed as “A”)
